In patent US9341616B2, “Sweet taste receptor chimeric proteins and use thereof” (AJINOMOTO CO., INC., priority 2014, dated 2016) one finds S/N data, which are given here for 9 molecules.

The target in one assay is h-mT1R2-481/mT1R3 (UniProt Q8TE23+Q925D8, A537S/A564V/A568V/A570T/A649T/A658V/A782V/E530V/E534N/E542M/E548N/F525Y/F665L/G696N/G701T/H484Y/H528R/I481V/I486P/I490V/I510L/I518V/I595M/I643V/I645L/I692L/I695G/K504M/K626T/K714N/L521P/L571I/L578I/L610P/L631F/L636F/L639V/L688V/L702I/L734M/L800F/M492I/M616G/M682V/M690V/M748V/N540G/N541S/N721H/P638T/P824S/Q536L/Q546K/Q555R/Q676H/R498S/R667S/S501P/S547N/S550A/S628F/S663R/S670G/S681F/S703N/S727G/S784D/S804G/T529S/T549I/T609V/T629S/T642S/T705I/T706G/T716I/V508I/V512P/V557A/V585L/V613L/V617M/V673M/V687A/V691A/V694A/V718L/V741L/V774I/V791M/Y533F/Y615F/Y671F/Y769S/Y783H). The following applies: genes h-mT481/mT3 (h-mT1R2-481, mT1R3), HEK293E cells. On the procedure:
(§1) The HEK293E cells maintained by using the DMEM/Ham's F-12 medium (Nakarai Tesque) containing 10% fetal bovine serum ([…]) and 1% Pen Strep (GIBCO) were washed with D-PBS(−) (Nakarai Tesque), and collected from the flask by using 0.25% Trypsin EDTA (GIBCO). The cells were centrifuged (1,200 rpm, 3 minutes), and after the supernatant was removed, suspended in 5% FBS DMEM/Ham's F-12 at a density of 0.75×10^7 cell/ml. This suspension (10 ml) was put into a […] (IWAKI), and culture was performed overnight (37° C., 5% CO2). On the next day, the medium was exchanged with Opti-MEM (30 ml, Invitrogen, Life Technologies), a sweet taste receptor gene mixture (Gα15-trans48LD gene, various kinds of T1R2 chimeric genes, and various kinds of T1R3 chimeric genes, 63.8 μg in total) prepared by using Opti-MEM and Lipofectamin 2000 (Invitrogen, Life Technologies) was slowly added to the cell suspension, and incubation was performed (37° C., 5% CO2) for 6 hours to attain gene transfer.
(§2) After the gene transfer, the cells were washed with D-PBS(−), then removed from the flask by using 0.25% Trypsin EDTA (GIBCO), and collected. After the cell number was counted, the cells were suspended in the 5% FBS DMEM medium (2.78 mM glucose, GIBCO) at a density of 0.5×10^6 cell/ml. This cell suspension was put into wells of D-Lysine coat 96-well plate (BD bioscience) in such a volume that the cell count is 7.0×10^4 cells/well, and the cells were cultured overnight.
(§3) After the culture, all the medium of the 96 wells were discarded. 200 μl of the staining solution for measurement of intracellular calcium ion′ Calcium Assay Kit Express (Molecular Device), diluted 80 times with an assay buffer (20 mM HEPES, 146 mM NaCl, 1 mM MgSO4, 1.39 mM glucose, 1 mM CaC12, 2.5 mM Probenecid, 0.05% bovine serum albumin) was added to each well, and the plate was left standing at 37° C. for 30 minutes and at room temperature for 45 minutes to perform staining. After the staining, 50 μl of a solution of stimulant (sweet taste substance) prepared with the assay buffer was added to each well, and the fluorescence value was measured for 120 seconds after the stimulation by using FDSSμEELL (Hamamatsu Photonics). By measuring the fluorescence value (Ex. 480 nm, Em. 540 nm) before and after the stimulation, the change of the intracellular free calcium ion concentration caused by addition of the stimulant via a sweet taste receptor was quantitatively investigated. The measurement and analysis of the fluorescence value was performed by using the software attached to FDSSμEELL (FDSS7000EX), and ΔF/F value was calculated in accordance with the following equation, and used for the evaluation. ΔF/F=(Maximum fluorescence value after stimulation−Minimum fluorescence value after stimulation)/(Fluorescence value before stimulation)
(§4) Furthermore, by using the ΔF/F values obtained when each sweet taste substance was added, the S/N ratio was calculated. Specifically, the S/N value was calculated by using the minimum value of ΔF/F obtained when each substance was added at various concentrations as noise (N) value, and the similarly obtained maximum value of ΔF/F as the signal (S) value, and used as an index for sensitivity of the measurement of the activity of each receptor. That is, a higher S/N value means a higher sensitivity for detection of an interaction of a sweet taste receptor and a test substance, which makes it easier to detect stimulation with a sweet taste substance or sweet taste-regulating substance of a lower concentration.
(§5) The sweet taste substances used as the stimulating substance are acesulfame potassium (Tokyo Kasei Kogyo), sodium saccharin (WAKO), sucralose (SIGMA), sucrose (WAKO), and neotame (SIGMA), as well as aspartame, advantame, and SC-45647 ([3-[(S)-1-phenylethyl]-2-(4-cyanophenyl)guanidino]acetic acid, which were all synthesized in-house.

The target of the next assay is hT1R2/T1R3mosaicA (UniProt Q8TE23+Q925D8, A12W/A31M/A558R/A588V/A645S/A698V/A702T/A793V/A807V/C582S/C678S/E16H/E725V/F14L/F29L/F541I/F612A/F622V/F695L/H728R/I36V/I60P/I617V/I706V/I740A/I803L/K30R/K555R/K565R/K818R/K827G/L17P/L560F/L684P/L735F/L823M/L825Q/M19T/M644L/M744T/N52R/N547G/N58S/N63T/N675D/P545F/P561R/P564S/P61V/Q32K/Q53S/Q550E/Q56R/Q611L/Q757R/Q795R/Q831P/R632Q/S22P/S45E/S576L/S595F/S610P/S635P/S637R/S679G/S717H/T46A/T50G/T542A/T663I/T694M/T813A/V573A/V584A/V718M/V723A/V729T/V738A/V805L/V812A/V821L/W599R/W676R/W824R/Y680C/Y794L). The following applies: HEK293E cells. On the procedure:
as §1, §2, §3, §4, §5

Where [1] appears, read: Table 5, genes hT2/T3mA (hT1R2, T1R3mA).
Setting [2] is: Table 6, genes hT2/T1R3mA (hT1R2, T1R3mA).

Like-named read-outs stand apart in the source and are kept apart here. Residues, ends and D or L forms follow the SMILES beside them.

h-mT1R2-481/mT1R3, sequence (Q8TE23 with tags, fused parts or gaps with the stated changes limits assumed): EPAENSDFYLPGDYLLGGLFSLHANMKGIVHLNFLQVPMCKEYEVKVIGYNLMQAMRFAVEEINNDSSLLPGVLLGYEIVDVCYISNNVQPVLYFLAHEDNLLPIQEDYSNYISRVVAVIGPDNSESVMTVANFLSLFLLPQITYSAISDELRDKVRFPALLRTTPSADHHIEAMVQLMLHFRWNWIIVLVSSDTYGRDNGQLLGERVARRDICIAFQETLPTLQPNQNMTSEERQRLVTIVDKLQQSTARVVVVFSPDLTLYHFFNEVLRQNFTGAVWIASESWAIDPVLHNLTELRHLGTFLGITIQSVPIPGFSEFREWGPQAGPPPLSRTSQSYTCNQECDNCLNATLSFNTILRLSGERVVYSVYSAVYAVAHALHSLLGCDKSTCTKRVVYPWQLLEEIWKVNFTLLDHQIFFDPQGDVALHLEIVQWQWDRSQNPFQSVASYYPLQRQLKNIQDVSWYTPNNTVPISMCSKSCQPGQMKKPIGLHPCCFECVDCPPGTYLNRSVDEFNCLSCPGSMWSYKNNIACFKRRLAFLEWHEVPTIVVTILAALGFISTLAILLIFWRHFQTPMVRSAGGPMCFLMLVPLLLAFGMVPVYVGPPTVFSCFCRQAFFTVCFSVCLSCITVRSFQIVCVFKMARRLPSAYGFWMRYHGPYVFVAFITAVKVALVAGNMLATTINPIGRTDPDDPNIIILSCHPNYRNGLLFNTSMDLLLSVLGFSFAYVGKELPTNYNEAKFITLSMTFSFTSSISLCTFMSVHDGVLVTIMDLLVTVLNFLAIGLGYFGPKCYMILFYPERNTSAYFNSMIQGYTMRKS
h-mT1R2-481/mT1R3, sequence (Q925D8 21-858, stated change not applied): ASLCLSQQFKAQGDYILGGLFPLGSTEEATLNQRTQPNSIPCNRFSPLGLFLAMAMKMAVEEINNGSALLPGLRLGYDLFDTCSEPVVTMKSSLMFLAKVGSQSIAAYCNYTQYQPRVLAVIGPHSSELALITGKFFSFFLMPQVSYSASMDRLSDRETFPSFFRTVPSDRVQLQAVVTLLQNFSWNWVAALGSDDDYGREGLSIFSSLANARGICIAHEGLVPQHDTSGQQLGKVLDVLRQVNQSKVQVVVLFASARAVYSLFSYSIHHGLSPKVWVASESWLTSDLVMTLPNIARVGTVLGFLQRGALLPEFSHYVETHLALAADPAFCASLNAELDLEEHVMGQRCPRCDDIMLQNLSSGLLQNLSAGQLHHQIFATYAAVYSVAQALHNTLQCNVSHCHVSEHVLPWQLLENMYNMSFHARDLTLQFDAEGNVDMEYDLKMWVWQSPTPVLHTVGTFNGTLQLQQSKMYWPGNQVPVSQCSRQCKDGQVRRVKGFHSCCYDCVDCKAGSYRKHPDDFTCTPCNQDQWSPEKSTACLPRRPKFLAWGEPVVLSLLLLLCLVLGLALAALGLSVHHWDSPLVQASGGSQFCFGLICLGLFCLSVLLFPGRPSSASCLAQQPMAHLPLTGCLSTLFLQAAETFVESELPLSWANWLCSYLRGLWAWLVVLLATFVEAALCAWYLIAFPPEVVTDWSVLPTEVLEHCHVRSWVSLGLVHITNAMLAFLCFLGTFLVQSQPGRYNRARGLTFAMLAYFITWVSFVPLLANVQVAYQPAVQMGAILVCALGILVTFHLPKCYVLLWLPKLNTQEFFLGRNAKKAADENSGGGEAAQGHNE
hT1R2/T1R3mosaicA, sequence (Q8TE23 20-839, stated change not applied): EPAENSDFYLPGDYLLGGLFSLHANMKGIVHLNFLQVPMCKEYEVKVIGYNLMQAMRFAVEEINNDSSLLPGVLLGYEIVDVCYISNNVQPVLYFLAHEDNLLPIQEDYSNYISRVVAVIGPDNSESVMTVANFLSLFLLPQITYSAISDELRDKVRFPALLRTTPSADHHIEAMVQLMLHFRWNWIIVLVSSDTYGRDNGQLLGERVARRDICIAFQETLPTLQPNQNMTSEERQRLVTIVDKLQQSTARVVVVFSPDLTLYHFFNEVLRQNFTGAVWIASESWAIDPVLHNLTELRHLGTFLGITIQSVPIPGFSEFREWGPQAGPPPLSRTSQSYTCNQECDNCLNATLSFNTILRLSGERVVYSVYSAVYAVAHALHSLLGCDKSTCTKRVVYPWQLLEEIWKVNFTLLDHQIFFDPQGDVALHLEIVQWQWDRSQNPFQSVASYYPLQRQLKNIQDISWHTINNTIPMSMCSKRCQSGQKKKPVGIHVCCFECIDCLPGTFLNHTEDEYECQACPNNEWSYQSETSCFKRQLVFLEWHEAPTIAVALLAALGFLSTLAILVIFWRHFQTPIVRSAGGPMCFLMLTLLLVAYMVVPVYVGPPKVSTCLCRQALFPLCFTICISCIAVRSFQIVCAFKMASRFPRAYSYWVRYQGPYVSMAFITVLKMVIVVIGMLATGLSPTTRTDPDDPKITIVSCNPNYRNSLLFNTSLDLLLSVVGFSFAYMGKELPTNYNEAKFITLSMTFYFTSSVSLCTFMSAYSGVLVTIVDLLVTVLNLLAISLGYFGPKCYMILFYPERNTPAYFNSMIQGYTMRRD
hT1R2/T1R3mosaicA, sequence (Q925D8 with tags, fused parts or gaps with the stated changes limits assumed): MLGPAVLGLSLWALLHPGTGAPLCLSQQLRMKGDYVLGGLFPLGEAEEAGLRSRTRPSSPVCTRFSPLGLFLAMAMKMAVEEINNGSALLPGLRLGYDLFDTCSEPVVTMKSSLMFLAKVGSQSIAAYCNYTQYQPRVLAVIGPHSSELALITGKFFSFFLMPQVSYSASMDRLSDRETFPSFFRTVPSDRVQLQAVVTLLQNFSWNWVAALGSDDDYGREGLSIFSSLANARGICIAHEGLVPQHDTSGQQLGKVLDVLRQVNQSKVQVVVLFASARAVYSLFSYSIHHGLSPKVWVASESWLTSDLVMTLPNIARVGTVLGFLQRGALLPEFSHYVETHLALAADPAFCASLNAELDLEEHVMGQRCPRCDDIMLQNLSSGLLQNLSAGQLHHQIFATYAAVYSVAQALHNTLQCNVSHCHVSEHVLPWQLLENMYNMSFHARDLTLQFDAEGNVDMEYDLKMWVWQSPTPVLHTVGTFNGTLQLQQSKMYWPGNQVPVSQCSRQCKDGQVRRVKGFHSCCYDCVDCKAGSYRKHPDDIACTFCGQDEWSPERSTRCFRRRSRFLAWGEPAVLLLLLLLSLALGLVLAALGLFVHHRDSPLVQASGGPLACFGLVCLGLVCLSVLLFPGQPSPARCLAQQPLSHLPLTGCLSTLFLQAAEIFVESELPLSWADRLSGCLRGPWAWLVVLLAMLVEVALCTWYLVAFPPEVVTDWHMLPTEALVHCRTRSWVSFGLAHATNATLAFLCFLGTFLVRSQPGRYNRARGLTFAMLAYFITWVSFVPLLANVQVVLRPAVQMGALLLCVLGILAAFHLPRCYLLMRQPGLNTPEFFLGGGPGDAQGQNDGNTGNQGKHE

On to `CC1=CC(=O)NS(=O)(=O)O1` [Acesulfame K, acesulfame potassium], for which the S/N is listed as 3.0 at h-mT1R2-481/mT1R3 (Table 3), 3.7 at h-mT1R2-481/mT1R3 (Table 4), 3.7 at hT1R2/T1R3mosaicA (setting [1]) and 3.7 at hT1R2/T1R3mosaicA (setting [2]).

As for `COC(=O)[C@H](Cc1ccccc1)NC(=O)[C@H](CC(=O)O)NCCCc1ccc(OC)c(O)c1` [Advantame, advantame], the S/N at h-mT1R2-481/mT1R3 (Table 3) stood at 6.6; at h-mT1R2-481/mT1R3 (Table 4), 7.1; at hT1R2/T1R3mosaicA (setting [1]) it was 7.6; at hT1R2/T1R3mosaicA (setting [2]), 7.5.

Turning to `COC(=O)[C@H](Cc1ccccc1)NC(=O)[C@@H](N)CC(=O)O` [Aspartame, aspartame] (HELM PEPTIDE1{D.F.[CO[*:1]]}$$$$V2.0), the S/N at h-mT1R2-481/mT1R3 (Table 3) was determined as 4.3; at h-mT1R2-481/mT1R3 (Table 4), 5.8; at hT1R2/T1R3mosaicA (setting [1]), 4.4; on hT1R2/T1R3mosaicA (setting [2]), 3.5.

With `COc1ccc(CCC(=O)c2c(O)cc(O[C@@H]3O[C@H](CO)[C@@H](O)[C@H](O)[C@H]3O[C@@H]3O[C@@H](C)[C@H](O)[C@@H](O)[C@H]3O)cc2O)cc1O` [NHDC, neohesperidin dihydrochalcone], the figures for the S/N on hT1R2/T1R3mosaicA (setting [1]) and at hT1R2/T1R3mosaicA (setting [2]) were 2.9 and 3.8, respectively.

Consider `COC(=O)[C@H](Cc1ccccc1)NC(=O)[C@H](CC(=O)O)NCCC(C)(C)C` [Neotame, neotame], for which the S/N is 5.4 on h-mT1R2-481/mT1R3 (Table 3), 5.4 at h-mT1R2-481/mT1R3 (Table 4), 5.7 at hT1R2/T1R3mosaicA (setting [1]) and 6.5 at hT1R2/T1R3mosaicA (setting [2]).

For the molecule `C[C@H](NC(=Nc1ccc(C#N)cc1)NCC(=O)O)c1ccccc1` [SC-45647, [3-[(S)-1-phenylethyl]-2-(4-cyanophenyl)guanidino]acetic acid], the S/N at h-mT1R2-481/mT1R3 (Table 3) was determined as 5.1; at h-mT1R2-481/mT1R3 (Table 4) it was 5.2; on hT1R2/T1R3mosaicA (setting [1]) it was 5.9; on hT1R2/T1R3mosaicA (setting [2]), 6.8.

For `O=C1NS(=O)(=O)c2ccccc21.[Na]` [Saccharin Na, sodium saccharin], the S/N at h-mT1R2-481/mT1R3 (Table 3) worked out at 3.9; on h-mT1R2-481/mT1R3 (Table 4), 4.4; on hT1R2/T1R3mosaicA (setting [1]), 4.3; on hT1R2/T1R3mosaicA (setting [2]) it was 4.2.

Turning to `OC[C@H]1O[C@H](O[C@]2(CCl)O[C@H](CCl)[C@@H](O)[C@@H]2O)[C@H](O)[C@@H](O)[C@H]1Cl` [Sucralose, sucralose], the S/N on h-mT1R2-481/mT1R3 (Table 3) was 5.0; on h-mT1R2-481/mT1R3 (Table 4), 5.7; at hT1R2/T1R3mosaicA (setting [1]), 6.0; at hT1R2/T1R3mosaicA (setting [2]), 5.9.

Take `OC[C@H]1O[C@@](CO)(O[C@H]2O[C@H](CO)[C@@H](O)[C@H](O)[C@H]2O)[C@@H](O)[C@@H]1O` [Sucrose, sucrose]: the S/N was 2.8 on h-mT1R2-481/mT1R3 (Table 3), 3.9 at h-mT1R2-481/mT1R3 (Table 4), 2.6 on hT1R2/T1R3mosaicA (setting [1]) and 2.3 at hT1R2/T1R3mosaicA (setting [2]).
